According to patent US12410192B2, “Compound for inhibiting and inducing degradation of EGFR kinase” (BEIJING TIDE PHARMACEUTICAL CO., LTD., priority 2019, dated 2025):
Like-named read-outs stand apart in the source and are kept apart here.

Tests used:
[1] = system: Ba/F3 (EGFR^L858R/T790M/C797S) cells; test: Assay of activity on Ba/F3 (EGFR^L858R/T790M/C797S) cells (CTG, 72 h); type: cell-based
Experimental: (§1) 30 nL of the compound dilution was added to a 384-well plate by Echo (Labcyte, Echo550). […] 2. Data Analysis
(§2) The percent inhibition rate (% inhibition) was calculated by the following formula
(§3) [formula] • LUMcmpd: Luminescence value of assay compound. • LUMpositive: Average LUM value of positive drug (Brigatinib) with a concentration of 10 μM. • LUMvehicle: Average LUM value of negative control group without drug treatment.
(§4) The nonlinear regression curve (dose response-variable slope) between the value of inhibition rate (%) and the logarithm of compound concentration was fitted with graphpad prism 8.0, the effect dose curve of compound was drawn, and the IC50 value was calculated. Y=Bottom+(Top−Bottom)/(1+10^((LogIC50−X)*HillSlope)) • X-axis: logarithm of compound concentration; Y axis: inhibition rate (% inhibition). 3.

[2] = system: Ba/F3 (EGFR^Del19/T790M/C797S) cells; test: Assay of activity on Ba/F3 (EGFR^Del19/T790M/C797S) cells (CTG, 72 h); type: cell-based
Experimental: as §1, §2, §3, §4

EGFR^L858R/T790M/C797S [3] = biological target: T1, EGFR^L858R/T790M/C797S (Homo sapiens (Human), UniProt P00533, C797S/L858R/T790M); test: Assay of inhibitory activity on EGFR (HTRF kinase assay); type: biochemical; conditions: mutant EGFR kinase
Experimental: Formula of inhibition rate (%): […]
The nonlinear regression curve (dose response-variable slope) between the value of inhibition rate (%) and the logarithm of compound concentration was fitted with graphpad prism 8.0, the effect dose curve of compound was drawn, and IC50 value was calculated.

EGFR^L858R/T790M/C797S [4] = biological target: T1, EGFR^L858R/T790M/C797S; test: Assay of activity of compounds for inducing EGFR^L858R/T790M/C797S protein degradation; type: cell-based; conditions: Ba/F3 (EGFR^L858R/T790M/C797S) cells
Experimental: In order to further explain the reason why the compounds of the present disclosure have inhibitory activity on Ba/F3 (EGFR^L858R/T790M/C797S) cells, representative compounds D3 was selected to study the mechanism of action of the compounds, and observe their effects on EGFR^L858R/T790M/C797S protein levels.
• Ba/F3 (EGFR^L858R/T790M/C797S) cells were cultured according to the culture conditions recommended by ATCC, and analyzed by index. • Complete medium: 1640 medium, 10% FBS, 1× glutamine, 1× penicillin-streptomycin. • Culture conditions: incubated at 37° C., 95% air, 5% CO2 incubator. (2) Compound Stock Solution:
10 mM stock solution in DMSO, stored at −20° C.
• The cells in the cell culture bottle were collected, and the cells with viability of >90% can be used in the assay. Cells were seeded in a 96-well plate with 40 μL cells, 1*10^5 cells/well. […] (6) Detection: • 1) 1 μg/mL of EGF activated cells were treated for 10 min; • 2) After the compound treatment, lysis buffer was added to lyse cells; 10 μL of cell lysate was transferred to a 384-well plate; in addition, 5 μL of acceptor mix was added to the 384-well plate, and shaken on a shaker for 1-2 min; • 3) 5 μL of donor mix was added to each well; the 384-well plate was sealed, shaken on a shaker for 1-2 min, left in the dark at room temperature overnight, and read with an enzyme labeling instrument. […]

| Compound | IC50 [1] | IC50 [2] | IC50 (EGFR^L858R/T790M/C797S [3]) | IC50 ([1]; Mus musculus, BaF3) | IC50 ([2]; Ba/F3 EGFR-Del19/T790M/C797S) | effect on EGFR^L858R/T790M/C797S protein level (in words) (EGFR^L858R/T790M/C797S [4]; 6 h, dose-dependent) | DC50 (EGFR^L858R/T790M/C797S [4]; 6 h treatment, 0.01 nM to 1000 nM, read-out: DC50 (EGFR^L858R/T790M/C797S protein level)) |
| --- | --- | --- | --- | --- | --- | --- | --- |
| 3-(1-oxo-4-(4-(4-(((R,E)-1^1,2^6,7-trimethyl-3-oxo-5^2,5^3-dihydro-1^1H,5^1H-11-oxa-4-aza-5 (2,1)-benzo[d]imidazole-2 (2,4)-pyridine-1 (4,5)-pyrazolecyclododecan-5^6-yl)methyl)piperazin-1-yl)butyl)isoindol-2-yl)piperidine-2,6-dione [Compound D1] | 2.12 nM | 2.7 nM |  |  |  |  |  |
| 3-(1-oxo-4-(5-(4-(((R,E)-1^1,2^6,7-trimethyl-3-oxo-5^2,5^3-dihydro-1^1H,5^1H-11-oxa-4-aza-5 (2,1)-benzo[d]imidazole-2 (2,4)-pyridine-1 (4,5)-pyrazolecyclododecan-5^6-yl)methyl)piperazin-1-yl) pent-1-yn-1-yl)isoindol-2-yl)piperidine-2,6-dione [Compound D2] | 3.96 nM | 3.89 nM |  |  |  |  |  |
| Cc1cc2cc(n1)-c1cnn(C)c1OCCC[C@@H](C)CN1/C(=N/C2=O)Nc2ccc(CN3CCN(CCCCCc4cccc5c4CN(C4CCC(=O)NC4=O)C5=O)CC3)cc21 (stereo partly drawn) [Compound D3, 3-(1-oxo-4-(5-(4-(((R,E)-1^1,2^6,7-trimethyl-3-oxo-5^2,5^3-dihydro-1^1H,5^1H-11-oxa-4-aza-5 (2,1)-benzo[d]imidazole-2 (2,4)-pyridine-1 (4,5)-pyrazolecyclododecan-5^6-yl)methyl)piperazin-1-yl)pentyl)isoindol-2-yl)piperidine-2,6-dione] |  |  | 1.09 nM | 2.88 nM | 3.13 nM | significantly reduces | 9.28 nM |
| Cc1cc2cc(n1)-c1cnn(C)c1OCCC[C@@H](C)CN1/C(=N/C2=O)Cc2ccc(CN3CCN(CCCCCCc4cccc5c4CN(C4CCC(=O)NC4=O)C5=O)CC3)cc21 (stereo partly drawn) [Compound D4, 3-(1-oxo-4-(6-(4-(((R,E)-1^1,2^6,7-trimethyl-3-oxo-5^2,5^3-dihydro-1^1H,5^1H-11-oxa-4-aza-5 (2,1)-benzo[d]imidazole-2 (2,4)-pyridine-1 (4,5)-pyrazolecyclododecan-5^6-yl)methyl)piperazin-1-yl)hexyl)isoindol-2-yl)piperidine-2,6-dione] | 4.39 nM | 4.41 nM | 10.1 nM |  |  |  |  |
| Cc1cc2cc(n1)-c1cnn(C)c1OCCC[C@@H](C)CN1/C(=N/C2=O)Nc2ccc(CN3CCN(CCCCCCCc4cccc5c4CN(C4CCC(=O)NC4=O)C5=O)CC3)cc21 (stereo partly drawn) [Compound D5, 3-(1-oxo-4-(7-(4-(((R,E)-1^1,2^6,7-trimethyl-3-oxo-5^2,5^3-dihydro-1^1H,5^1H-11-oxa-4-aza-5 (2,1)-benzo[d]imidazole-2 (2,4)-pyridine-1 (4,5)-pyrazolecyclododecan-5^6-yl)methyl)piperazin-1-yl)heptyl)isoindol-2-yl)piperidine-2,6-dione] |  |  | 35.9 nM | 11.6 nM | 10.7 nM |  |  |
| C=CC(=O)Nc1cc(Nc2nccc(-c3cn(C)c4ccccc34)n2)c(OC)cc1N(C)CCN(C)C [Osimertinib, reference compound] |  |  |  | > 1000 nM | > 1000 nM |  |  |
